The values that follow come from ChEMBL document CHEMBL1201862, “PubChem BioAssay data set” (2004).

Active and inactive are the calls of the source. Bounds are passed on as bounds.

Assay [1] deals with T1, Tyrosine-protein phosphatase non-receptor type 7 (Homo sapiens, UniProt P35236).
T1 sequence (P35236 whole entry): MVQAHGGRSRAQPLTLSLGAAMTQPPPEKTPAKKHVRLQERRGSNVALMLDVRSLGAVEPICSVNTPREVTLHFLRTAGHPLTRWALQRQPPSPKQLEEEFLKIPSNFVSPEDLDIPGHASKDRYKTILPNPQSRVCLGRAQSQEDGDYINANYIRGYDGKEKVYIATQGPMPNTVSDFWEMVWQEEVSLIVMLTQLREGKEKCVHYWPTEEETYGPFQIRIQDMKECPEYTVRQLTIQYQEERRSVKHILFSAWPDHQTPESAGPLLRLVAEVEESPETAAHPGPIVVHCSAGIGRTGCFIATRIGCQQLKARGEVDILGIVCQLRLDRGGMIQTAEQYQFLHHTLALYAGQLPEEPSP
Briefly: HTS HePTP Fluorescent Assay using OMFP substrate for In Vitro dose response studies. [Related pubchem assays (depositor defined):AID1059, AID1077, AID1784, AID2068, AID2085, AID435032, AID521]. Type of assay: functional.

In the next assay the target is Phospholipase A2 (Homo sapiens, UniProt P04054). Type of assay: functional.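 Note: confirmatory dose-response counterscreen on phospholipase A2, testing hits that came from an ultra-high-throughput screen for ATG4B inhibitors.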
Chain of Phospholipase A2 (P04054 whole entry): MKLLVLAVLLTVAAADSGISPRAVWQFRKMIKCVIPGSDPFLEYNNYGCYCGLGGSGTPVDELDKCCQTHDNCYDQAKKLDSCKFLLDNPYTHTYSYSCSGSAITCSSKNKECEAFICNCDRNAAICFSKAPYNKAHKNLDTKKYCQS
The target of assay [2] is Melanin-concentrating hormone receptor 1 (Homo sapiens, UniProt Q99705). Briefly: Fluorescence-based counterscreen for antagonists of the G-protein coupled receptor 7 (GPR7): cell-based high throughput dose response assay to identify antagonists of the melanin-concentrating hormone receptor 1 (MCHR1). Type of assay: functional. For orientation: Counterscreens check selectivity or assay interference.
Chain of Melanin-concentrating hormone receptor 1 (Q99705 whole entry): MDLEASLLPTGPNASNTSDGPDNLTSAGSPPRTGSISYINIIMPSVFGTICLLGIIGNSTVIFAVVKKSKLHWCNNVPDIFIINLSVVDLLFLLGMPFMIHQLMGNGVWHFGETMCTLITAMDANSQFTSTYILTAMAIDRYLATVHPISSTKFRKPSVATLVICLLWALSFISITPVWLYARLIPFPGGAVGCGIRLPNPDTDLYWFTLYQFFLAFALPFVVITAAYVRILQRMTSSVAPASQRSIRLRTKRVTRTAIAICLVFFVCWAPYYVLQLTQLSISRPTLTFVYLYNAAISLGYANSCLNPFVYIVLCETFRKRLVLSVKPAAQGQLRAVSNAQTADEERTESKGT

In a further assay the test system is BJ. Briefly: cells. Format: functional, cell-based. As to conditions: Homo sapiens.
Assay [3] deals with Protein-tyrosine kinase 2-beta (Homo sapiens, UniProt Q14289).
Chain of Protein-tyrosine kinase 2-beta (Q14289 whole entry): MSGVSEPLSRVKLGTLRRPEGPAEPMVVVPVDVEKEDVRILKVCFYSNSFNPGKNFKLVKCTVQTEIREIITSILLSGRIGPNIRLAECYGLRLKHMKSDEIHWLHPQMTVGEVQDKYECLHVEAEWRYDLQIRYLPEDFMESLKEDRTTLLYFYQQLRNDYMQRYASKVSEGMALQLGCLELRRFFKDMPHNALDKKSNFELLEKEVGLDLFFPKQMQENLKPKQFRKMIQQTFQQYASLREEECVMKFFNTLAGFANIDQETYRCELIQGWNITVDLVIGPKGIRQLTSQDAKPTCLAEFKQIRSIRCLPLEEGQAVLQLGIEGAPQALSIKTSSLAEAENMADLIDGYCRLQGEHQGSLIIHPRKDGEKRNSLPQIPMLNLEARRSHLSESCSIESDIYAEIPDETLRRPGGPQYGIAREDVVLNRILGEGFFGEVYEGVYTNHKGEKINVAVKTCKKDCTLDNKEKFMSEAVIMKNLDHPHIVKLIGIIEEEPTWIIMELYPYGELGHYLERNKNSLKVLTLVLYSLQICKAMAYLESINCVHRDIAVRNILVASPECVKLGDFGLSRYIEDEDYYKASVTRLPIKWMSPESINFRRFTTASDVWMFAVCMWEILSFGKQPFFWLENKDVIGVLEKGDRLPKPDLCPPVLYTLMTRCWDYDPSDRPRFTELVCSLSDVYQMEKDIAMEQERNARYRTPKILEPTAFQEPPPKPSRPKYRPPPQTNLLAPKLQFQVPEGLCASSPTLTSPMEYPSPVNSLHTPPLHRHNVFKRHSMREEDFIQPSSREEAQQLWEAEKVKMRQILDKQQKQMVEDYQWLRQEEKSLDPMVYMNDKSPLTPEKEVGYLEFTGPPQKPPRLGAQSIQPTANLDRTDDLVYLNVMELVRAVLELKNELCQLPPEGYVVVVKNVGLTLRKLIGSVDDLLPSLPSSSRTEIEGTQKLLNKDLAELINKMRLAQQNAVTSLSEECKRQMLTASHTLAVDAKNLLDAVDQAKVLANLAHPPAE
The target of assay [4] is T2, Tyrosine-protein phosphatase non-receptor type 22 (Homo sapiens, UniProt Q9Y2R2).
T2 sequence (Q9Y2R2 whole entry): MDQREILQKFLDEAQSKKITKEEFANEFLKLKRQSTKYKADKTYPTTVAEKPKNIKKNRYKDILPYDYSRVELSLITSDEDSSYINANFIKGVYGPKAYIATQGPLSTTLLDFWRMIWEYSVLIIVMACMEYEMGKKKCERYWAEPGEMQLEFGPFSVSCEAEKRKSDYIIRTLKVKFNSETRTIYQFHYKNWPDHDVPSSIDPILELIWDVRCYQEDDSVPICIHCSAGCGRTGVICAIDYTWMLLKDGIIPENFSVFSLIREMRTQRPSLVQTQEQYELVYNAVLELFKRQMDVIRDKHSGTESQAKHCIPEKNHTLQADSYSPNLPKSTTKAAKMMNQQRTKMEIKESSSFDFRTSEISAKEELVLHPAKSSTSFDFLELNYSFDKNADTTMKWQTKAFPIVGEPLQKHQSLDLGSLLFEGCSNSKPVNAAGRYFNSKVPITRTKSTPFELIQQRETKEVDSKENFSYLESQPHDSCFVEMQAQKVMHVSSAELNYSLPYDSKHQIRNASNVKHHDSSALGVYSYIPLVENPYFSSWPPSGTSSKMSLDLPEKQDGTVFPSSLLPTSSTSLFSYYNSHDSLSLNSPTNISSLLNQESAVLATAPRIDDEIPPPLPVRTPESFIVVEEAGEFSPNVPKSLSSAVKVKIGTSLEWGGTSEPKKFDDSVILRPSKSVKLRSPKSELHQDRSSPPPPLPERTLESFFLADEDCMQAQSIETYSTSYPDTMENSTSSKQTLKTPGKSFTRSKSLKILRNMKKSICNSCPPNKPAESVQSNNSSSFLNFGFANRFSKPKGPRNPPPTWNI
Briefly: lymphoid phosphatase LYP inhibitors – biochemical, selectivity assay for STEP inhibitor project, dose response (AID 624241). Type of assay: functional.

The next assay concerns the target Genome polyprotein (Hepatitis C virus, UniProt Q2Q167). Briefly: disruption of hepatitis C core self-association – biochemical, TR-FRET, dose response (AID 2159).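 Note: blocks dimerization of HCV core protein measured by TR-FRET between tagged core106 pairs.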 The arrangement: species or system Hepacivirus hominis. (In general: Time-resolved FRET reads energy transfer from a long-lived donor to a nearby acceptor.)
For a further assay, the target named is T3, ORF 73 (Human herpesvirus 8, UniProt O40947).
T3 sequence (O40947 whole entry): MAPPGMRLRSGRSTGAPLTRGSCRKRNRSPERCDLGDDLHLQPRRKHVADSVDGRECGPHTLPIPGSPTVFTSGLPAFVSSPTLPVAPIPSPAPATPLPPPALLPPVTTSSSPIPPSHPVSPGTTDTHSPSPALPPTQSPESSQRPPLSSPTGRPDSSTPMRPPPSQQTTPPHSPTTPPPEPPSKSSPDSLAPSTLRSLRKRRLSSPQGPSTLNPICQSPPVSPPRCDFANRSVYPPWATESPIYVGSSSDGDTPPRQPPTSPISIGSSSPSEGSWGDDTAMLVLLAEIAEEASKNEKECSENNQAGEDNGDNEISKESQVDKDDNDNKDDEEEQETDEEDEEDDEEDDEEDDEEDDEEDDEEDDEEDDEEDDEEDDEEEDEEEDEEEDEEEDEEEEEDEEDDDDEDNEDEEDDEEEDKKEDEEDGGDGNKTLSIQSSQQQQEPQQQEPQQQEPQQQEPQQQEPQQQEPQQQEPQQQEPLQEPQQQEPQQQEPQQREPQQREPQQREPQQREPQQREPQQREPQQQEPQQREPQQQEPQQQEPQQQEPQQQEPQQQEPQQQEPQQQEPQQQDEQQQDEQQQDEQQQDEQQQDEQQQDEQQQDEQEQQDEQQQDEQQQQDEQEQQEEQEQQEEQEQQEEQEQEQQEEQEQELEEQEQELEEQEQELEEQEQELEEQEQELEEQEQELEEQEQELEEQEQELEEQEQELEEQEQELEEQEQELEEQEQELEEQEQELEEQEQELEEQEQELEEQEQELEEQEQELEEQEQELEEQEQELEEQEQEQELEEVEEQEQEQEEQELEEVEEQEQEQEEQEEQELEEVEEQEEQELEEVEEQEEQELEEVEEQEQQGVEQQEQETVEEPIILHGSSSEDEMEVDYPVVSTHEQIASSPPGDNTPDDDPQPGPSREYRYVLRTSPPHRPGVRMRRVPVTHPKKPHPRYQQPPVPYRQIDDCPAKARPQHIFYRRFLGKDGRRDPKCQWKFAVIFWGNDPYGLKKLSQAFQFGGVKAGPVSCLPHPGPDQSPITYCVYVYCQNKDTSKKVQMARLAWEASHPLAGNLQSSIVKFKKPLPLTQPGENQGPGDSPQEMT
Briefly: KSHV LANA DNA-binding disruption – biochemical, fluorescence polarization, cherry-picked samples, dose response (AID 504725).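 Note: fluorescence polarization of a labeled DNA duplex reporting LANA DNA binding; potency is for inhibitors that block LANA binding to the DNA.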 Also on record: species or system Human gammaherpesvirus 8. For orientation: Fluorescence polarisation rises when a labelled molecule tumbles more slowly, as on binding a larger partner.

Assay [5] addresses Probable nicotinate-nucleotide adenylyltransferase (Staphylococcus aureus (strain N315), UniProt P65502). Format: functional, Staphylococcus aureus subsp. aureus N315. As to conditions: read-out: IC50_Mean.
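Throughout, for IC50 Mean: confirmatory dose-response retesting of NadD inhibitor hits first found in an ultra-high-throughput screen.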

Chain of Genome polyprotein (Q2Q167 whole entry): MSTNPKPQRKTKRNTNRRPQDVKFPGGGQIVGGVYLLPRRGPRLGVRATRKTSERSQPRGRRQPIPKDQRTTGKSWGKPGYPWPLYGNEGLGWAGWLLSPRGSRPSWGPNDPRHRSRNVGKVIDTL
Chain of Probable nicotinate-nucleotide adenylyltransferase (P65502 whole entry): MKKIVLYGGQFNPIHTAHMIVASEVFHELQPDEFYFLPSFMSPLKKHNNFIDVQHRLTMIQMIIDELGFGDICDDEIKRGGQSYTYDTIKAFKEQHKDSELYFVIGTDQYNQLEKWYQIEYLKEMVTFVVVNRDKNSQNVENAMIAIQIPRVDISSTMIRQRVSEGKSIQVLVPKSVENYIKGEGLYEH

As to `O=C(O)COc1ccc(/C=N/NC(=O)c2ccc(-c3csc(Nc4ccc(Cl)cc4)n3)cc2)cc1`, in [1], the IC50 is > 99 µM (inactive). Consider `CC(/C=C1\SC(=S)N(NS(=O)(=O)c2ccccc2)C1=O)=C\c1ccccc1`, for which, at Phospholipase A2, the IC50 is 8.23 µM (active). As to `CCN1/C(=C/c2ccc3cc(C)ccc3[n+]2CC)Sc2cc(C)c(C)cc21`, the IC50 in assay [2] is > 4.87 µM (active). Moreover, in the assay with BJ, the EC50 was 2.34 µM (active).

Take `Cc1oc2c(c1C(=O)c1ccccc1)C(=O)C(=O)c1ccccc1-2`: in assay [3], the IC50 was > 69.5 µM (not active).

Regarding `CSc1ccc(C=NNc2ccc(S(=O)(=O)Nc3ccccc3C(=O)O)cc2[N+](=O)[O-])cc1`, in assay [4], the IC50 is 2.82 µM (active). On to `Nc1ccc2nc3c(O)nc(S)nc3nc2c1`, for which the IC50 at Genome polyprotein was > 49.8 µM (not active); in [5], 17 µM (active). Also, the AC50 on ORF 73 is 3.62 µM (active).

As usually defined, the EC50 is the concentration that produces a half-maximal response. By AC50 is commonly meant the concentration at which the activity in the assay is half-maximal.
